According to publication PMC4510645, “Discovery of intramolecular trans-sialidases in human gut microbiota suggests novel mechanisms of mucosal adaptation” (Nature Communications, 2015):
Where “and” joins values, the source holds several entries; their conditions need not be identical. Equal values may be shown once. Read-outs that look alike come from different tables or passages of the source.

Experiments:
[1] = test system: AkmNan0625 and AkmNan1835; assay: Specificity against sialyl-oligosaccharides, HPAEC-PAD (control sialidases); assay type: biochemical, Akkermansia muciniphila; design: key to Activity AkmNan0625 and AkmNan1835: +: Activity was defined as disappearance of the substrate peak and appearance of a lower-molecular weight peak, which could correspond to the desialylated substrate; details: substrate 1 mM, 1 nM enzyme, 37 °C, pH 6.5, overnight
Description: (§1) Figure 2 Specificity of RgNanH towards sialylated oligosaccharides. The enzymes were incubated with sialylated substrates at 37 °C, pH 6.5, overnight and the reaction products were analysed by HPAEC-PAD. Control reactions without enzyme were also performed. The injection peak is marked (inj). Glycerol (gly) was also present in AkmNan0625. (a) Standards (Lac, Neu5Ac, 3′SL and 6′SL), (b) 3′SL, (c) 6′SL and (d) 3'-α-sialyl-N-acetyllactosamine (3′SLacNAc). AkmNan1835 has a similar profile to […].
All chemicals were obtained from Sigma (St Louis, USA) unless otherwise stated. The A. muciniphila sialidases, termed here AkmNan0625 and AkmNan1835, were obtained by His-Tag overexpression of their genes (Amuc_0625 and Amuc_1835, respectively)[56] in E. coli BL21(DE3) and subsequent purification to homogeneity by immobilized metal affinity chromatography as described below. The sialylated oligosaccharides and OC were obtained from Carbosynth (Berks, UK).
(§2) The purified enzymes were incubated with the substrate in buffer made from 20 mM Na2HPO4 and 20 mM NaH2PO4 adjusted to pH 6.5 containing 1 mg ml^−1 BSA at 37 °C unless otherwise stated. For 4MU-Neu5Ac, the progression of the reaction was monitored by the release of the MU using a 96-well plate reader (BMG Labtech, Ortenberg, Germany) using fluorescence with an excitation at 340 nm and an emission at 420 nm. For determining the optimal temperature, the assay was carried out in 20 mM PBS at pH 7.4. For determining the optimal pH, the assay was carried out at 37 °C using buffer made from 20 mM Na2HPO4 and 20 mM NaH2PO4 in varying proportions to obtain the desired pH. PNP release from PNP-Neu5Ac was monitored in a similar way measuring absorbance at 405 nm every 60 s. For 3′SL, the reaction was monitored by HPAEC-PAD. An aliquot of the reaction was removed from the main reaction volume at the reaction stopped by boiling for 20 min, the enzyme was then removed by centrifugation at 17,000g for 10 min and filtration with a 0.2-μm filter (Millipore, Billerica, USA). The sugars were separated by HPAEC with an isocratic gradient of 100 mM NaOH and 100 mM NaAC at 1 ml min^−1 on a CarboPac PA1 protected with a guard column and detected using PAD on a Dionex ICS5000 system (Thermo Scientific, Hemel Hempstead, UK). The column was cleaned with 10 ml of 500 mM NaOH and 500 mM NaAc, and the column was re-equilibrated with 100 mM NaOH and 100 mM NaAc. An internal standard of fucose was used to quantify the results.
(§3) For specificity tests against sialylated oligosaccharides (1 mM) and glycoproteins (1 mg ml^−1), 1 nM of enzyme was incubated with the substrate at 37 °C, pH 6.5, overnight.

RgNanH [2] = target: T1, RgNanH (Mediterraneibacter gnavus (Ruminococcus gnavus), UniProt A7B557); assay: Specificity against sialyl-oligosaccharides, HPAEC-PAD; assay type: biochemical, Ruminococcus gnavus ATCC 29149; design: key to Activity RgNanH: +: Activity was defined as disappearance of the substrate peak and appearance of a lower-molecular weight peak, which could correspond to the desialylated substrate; details: substrate 1 mM, 1 nM enzyme, 37 °C, pH 6.5, overnight
T1 sequence (A7B557 26-723): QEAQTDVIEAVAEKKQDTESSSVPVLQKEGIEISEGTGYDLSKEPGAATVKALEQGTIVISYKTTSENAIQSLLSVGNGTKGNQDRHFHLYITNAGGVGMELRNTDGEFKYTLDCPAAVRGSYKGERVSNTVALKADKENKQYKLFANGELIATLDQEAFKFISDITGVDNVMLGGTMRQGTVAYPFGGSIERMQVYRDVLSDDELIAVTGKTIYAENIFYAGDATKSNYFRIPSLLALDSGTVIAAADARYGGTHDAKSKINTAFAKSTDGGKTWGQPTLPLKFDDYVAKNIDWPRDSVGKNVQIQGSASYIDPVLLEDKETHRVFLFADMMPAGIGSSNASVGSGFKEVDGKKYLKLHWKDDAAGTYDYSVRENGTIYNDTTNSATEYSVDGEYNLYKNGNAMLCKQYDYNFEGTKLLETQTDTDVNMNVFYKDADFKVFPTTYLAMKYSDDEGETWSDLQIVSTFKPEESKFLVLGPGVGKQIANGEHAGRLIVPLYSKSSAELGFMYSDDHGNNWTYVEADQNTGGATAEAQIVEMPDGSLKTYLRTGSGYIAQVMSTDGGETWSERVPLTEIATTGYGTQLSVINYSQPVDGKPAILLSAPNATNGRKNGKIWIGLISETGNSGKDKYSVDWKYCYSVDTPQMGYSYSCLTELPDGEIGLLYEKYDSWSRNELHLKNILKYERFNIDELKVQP
Description: as §1, §2, §3

RgNanH [3] = target: T1, RgNanH; assay: Kinetic parameters of RgNanH with sialylated substrates; assay type: biochemical, Ruminococcus gnavus ATCC 29149; details: pH 6.5, 37 °C
Description: as §2
For 4MU-Neu5Ac and 3′SL, the rate of hydrolysis without enzyme was not significant, thus raw data were used. However, for pNP-Neu5Ac, the rate of hydrolysis without enzyme was significant, thus the rate with enzyme was corrected by the subtraction of the rate without enzyme at each concentration of substrate. For 3′SL, the rate of reaction was calculated by plotting the amount of substrate remaining over the course of >50 % of the reaction using the following equation[58]: […]
Where k is kcat/KM × enzyme concentration, t is time, [S0] and [St] are substrate concentrations at time 0 and t, respectively.
Kinetic data were obtained from at least duplicate (usually triplicate) experiments, and the kinetic parameters were calculated by fitting the initial raw data to the Michaelis–Menten equation using a nonlinear regression analysis programme (Prism 6, GraphPad, San Diego, USA), and error bars (s.e.m.) are shown.

RgNanH [4] = target: T1, RgNanH; assay: Inhibition of RgNanH activity against 4MU-Neu5Ac by neuraminidase inhibitors; assay type: biochemical, Ruminococcus gnavus ATCC 29149; details: for LogIC50 / IC50: 4MU-Neu5Ac 0.51 mM, pre-incubated 15 min at 37 °C, pH 6.5
Description: Figure 1 Kinetic analysis of the hydrolysis of sialylated substrates by RgNanH in presence or absence of inhibitors. Substrate (a) 4MU-Neu5Ac or (b) PNP-Neu5Ac was incubated with RgNanH ([…] and 0.43 nM, respectively) at 37 °C, pH 6.5 and the release of product measured using a plate reader. (c) Inhibition of RgNanH (1.00 nM) incubated with 4MU-Neu5Ac (0.51 mM) by zanamivir (●), Neu5Ac2en (▪), siastatin B (▴) and OC (♦), the rates are normalized to a % of the uninhibited rate. [I] is the inhibitor concentration. (d) 3′SL was incubated with RgNanH (2.25 nM) and the release of product measured by HPAEC-PAD. Experiments were done at least in duplicate (usually triplicate) and the error bars show the s.e.m.
as §2, with “results. […]” for “results.”

Molecule	Activity AkmNan0625 and AkmNan1835 [1]	Activity RgNanH (RgNanH [2])	LogIC50 (RgNanH [4]; RgNanH 1.00 nM)	IC50 (RgNanH [4]; RgNanH 1.00 nM, read-out: IC50)	other results
CO[C@@H]1O[C@H](CO)[C@@H](O[C@@H]2O[C@H](CO)[C@H](O)[C@H](O[C@]3(C(=O)O)C[C@H](O)[C@@H](NC(C)=O)[C@H]([C@H](O)[C@H](O)CO)O3)[C@H]2O)[C@H](O[C@@H]2O[C@@H](C)[C@@H](O)[C@@H](O)[C@@H]2O)[C@H]1NC(C)=O [3′-Sialyl Lewis X methyl glycoside, Neu5Ac-α-2-3-Gal-β-1-4-[Fuc-a-1-3]-GlcNAc-β-OMe]	+	+			
CC(=O)N[C@H]1[C@H]([C@H](O)[C@H](O)CO)O[C@@](O[C@H]2[C@@H](O)[C@@H](CO)O[C@@H](O[C@H]3[C@H](O[C@@H]4O[C@@H](C)[C@@H](O)[C@@H](O)[C@@H]4O)[C@@H](NC(C)=O)C(O)O[C@@H]3CO)[C@@H]2O)(C(=O)O)C[C@@H]1O (stereo partly drawn) [3′-Sialyl Lewis X, Neu5Ac-α-2-3-Gal-β-1-4-[Fuc-a-1-3]-GlcNAc]	+	+			
CC(=O)N[C@H]1[C@H]([C@H](O)[C@H](O)CO)O[C@@](O[C@H]2[C@@H](O)[C@@H](CO)O[C@@H](O[C@H]3[C@H](O[C@@H]4O[C@@H](C)[C@@H](O)[C@@H](O)[C@@H]4O)[C@@H](O)C(O)O[C@@H]3CO)[C@@H]2O)(C(=O)O)C[C@@H]1O (stereo partly drawn) [3′-Sialyl-3-fucosyllactose, Neu5Ac-α-2-3-Gal-β1-4-[Fuc-α-1-3]-Glc]	+	+			
CC(=O)NC1C(O)CC(OC2C(O)C(O)OC(CO)C2O)(C(=O)O)OC1C(O)C(O)CO (stereo not drawn) [3′-Sialylgalactose, Neu5Ac-α-2-3-Gal]	+	+			
CC(=O)N[C@@H]1[C@@H](O)C[C@](Oc2ccc3c(C)cc(=O)oc3c2)(C(=O)O)O[C@H]1C(O)[C@H](O)CO (stereo partly drawn) [4MU-Neu5Ac, 2′-(4-methylumbelliferyl)-α-D-N-acetylneuraminic acid]					Ki (RgNanH [3]; substrate inhibition, s.e.m.): 2370 ± 650 µM; kcat (RgNanH [3]; substrate of RgNanH): 6210 min⁻¹; Km (RgNanH [3]; substrate of RgNanH, s.e.m.): 590 ± 170 µM; Vmax (RgNanH [3]; substrate of RgNanH, s.e.m.): 1.37 ± 0.23 µM/min
CC(=O)N[C@H]1[C@H]([C@H](O)[C@H](O)CO)OC(OC[C@H]2OC(O)[C@H](O)[C@@H](O)[C@H]2O)(C(=O)O)C[C@@H]1O (stereo partly drawn) [6′-Sialylgalactose, Neu5Ac-α-2-6-Gal]	+				
CC(=O)N[C@H]1[C@H]([C@H](O)[C@H](O)CO)OC(C(=O)O)=C[C@@H]1O [Neu5Ac2en, 2-deoxy-2,3-didehydro-D-N-acetylneuraminic acid]			0.15±0.04	1400 µM and 1410 µM	
CCC(CC)O[C@@H]1C=C(C(=O)O)C[C@H](N)[C@H]1NC(C)=O [Oseltamivir carboxylate]			−1.53±0.02	29.6 µM	improvement in inhibition of RgNanH (RgNanH [4]; compared with Neu5Ac2en (IC50: 1.4 mM to 30 μM)): ~50 fold
CC(=O)N[C@H]1[C@H]([C@H](O)[C@H](O)CO)O[C@@](Oc2ccc([N+](=O)[O-])cc2)(C(=O)O)C[C@@H]1O [PNP-Neu5Ac, 2-O-(p-nitrophenyl)-α-D-N-acetylneuraminic acid]					kcat (RgNanH [3]; substrate of RgNanH): <152 ^* min^−1; Km (RgNanH [3]; substrate of RgNanH, s.e.m.): > 25000 µM
CC(=O)N[C@H]1NC[C@H](C(=O)O)[C@H](O)[C@@H]1O [Siastatin B]			−2.31±0.02	4.87 µM	
CC(=O)N[C@H]1[C@H]([C@H](O)[C@H](O)CO)OC(C(=O)O)=C[C@@H]1N=C(N)N [Zanamivir, 4-guanidino-Neu5Ac2en]			1.08±0.07	11900 µM	IC50 (RgNanH [4]; IC50, RgNanH 1.00 nM): ~12000 µM
Neu5Ac-α-2-3-Gal-β-1-4-GlcNAc [3′-α-Sialyl-N-acetyllactosamine]	+	+			
Neu5Ac-α-2-6-Gal-β-1-4-GlcNAc [6′-α-Sialyl-N-acetyllactosamine]	+				
